Columns and labels:
human SLC6A19 and TMEM27 [1] = biological target: T1, human SLC6A19 and TMEM27 (Homo sapiens, UniProt Q695T7); assay: 13C6,15N-isoleucine uptake in CHO cells with doxycycline-inducible expression of human SLC6A19 and TMEM27, RapidFire mass spectrometry (Example B-2); assay type: cell-based; conditions: read-out: SLC6A19_RapidFire Uptake Assay IC50
T1 construct: expressed in transfected cells
T1 sequence (Q695T7 1-634): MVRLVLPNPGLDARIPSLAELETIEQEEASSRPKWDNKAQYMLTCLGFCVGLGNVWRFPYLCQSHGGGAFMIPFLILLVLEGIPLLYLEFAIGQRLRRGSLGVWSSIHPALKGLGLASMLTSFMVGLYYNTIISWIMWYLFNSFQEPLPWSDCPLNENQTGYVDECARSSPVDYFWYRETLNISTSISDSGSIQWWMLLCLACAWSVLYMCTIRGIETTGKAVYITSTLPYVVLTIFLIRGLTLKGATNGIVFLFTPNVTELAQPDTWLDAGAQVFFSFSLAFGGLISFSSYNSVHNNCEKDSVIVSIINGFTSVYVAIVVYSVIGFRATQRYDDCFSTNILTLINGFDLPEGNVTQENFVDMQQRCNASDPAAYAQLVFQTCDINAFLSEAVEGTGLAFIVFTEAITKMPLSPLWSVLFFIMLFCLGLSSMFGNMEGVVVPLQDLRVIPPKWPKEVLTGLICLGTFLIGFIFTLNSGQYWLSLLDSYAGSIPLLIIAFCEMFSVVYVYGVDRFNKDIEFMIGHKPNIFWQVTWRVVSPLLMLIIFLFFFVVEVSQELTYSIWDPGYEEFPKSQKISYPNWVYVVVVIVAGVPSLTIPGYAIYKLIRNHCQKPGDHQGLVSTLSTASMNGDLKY
T1 sequence (Q9HBJ8 15-222 partner): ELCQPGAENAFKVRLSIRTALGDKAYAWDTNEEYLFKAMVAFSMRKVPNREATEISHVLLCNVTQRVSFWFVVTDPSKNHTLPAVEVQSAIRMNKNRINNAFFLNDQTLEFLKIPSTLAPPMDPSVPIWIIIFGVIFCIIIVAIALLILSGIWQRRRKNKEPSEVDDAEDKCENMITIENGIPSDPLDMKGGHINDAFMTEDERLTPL
In short: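 CHO cells induced overnight with doxycycline to express human SLC6A19 plus TMEM27; 20 min preincubation with compound (10-point 2-fold series, duplicate) at 37 °C in HEPES buffer pH 7.2, then 20 min with 13C6,15N-isoleucine. Intracellular label quantified by RapidFire MS against 13C-leucine standard; positive control defined 100% inhibition.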

human SLC6A19 and TMEM27 [2] = biological target: T1, human SLC6A19 and TMEM27; assay: Radiolabelled (3H) leucine uptake in CHO cells with doxycycline-inducible expression of human SLC6A19 and TMEM27 (Example B-1); assay type: cell-based; conditions: CHO cells with doxycycline-inducible expression of human SLC6A19 and TMEM27, read-out: SLC6A19_Radioligand Uptake Assay IC50
In short: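 CHO cells were induced with doxycycline for 18 h at 37 °C, washed in HBSS, then exposed to compounds for 1 h: 8-point, 3-fold dilutions in duplicate, 0.5% DMSO final. Uptake measured by scintillation counting after 2 h shaking. Activity normalized with positive control as 0% and DMSO as 100%.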

IC50 (human SLC6A19 and TMEM27 [1]) | IC50 (human SLC6A19 and TMEM27 [2]) | Structure (SMILES)
153 nM | 214 nM | CC1(C(=O)NCc2cc3cc(C(F)(F)F)c(OCc4ccon4)cc3[nH]2)CC1 [Compound 59, N-((6-(isoxazol-3-ylmethoxy)-5-(trifluoromethyl)-1H-indol-2-yl)methyl)-1-methylcyclopropane-1-carboxamide]
103 nM | 134 nM | CC(=O)NCc1cc2cc(Cl)c(OCc3ccno3)cc2[nH]1 [Compound 219, N-((5-chloro-6-(isoxazol-5-ylmethoxy)-1H-indol-2-yl)methyl)acetamide]
38 nM | 83 nM | O=C(NCc1cc2cc(F)c(OCc3cscn3)cc2[nH]1)C1CC1 [Compound 136, N-((5-fluoro-6-(thiazol-4-ylmethoxy)-1H-indol-2-yl)methyl)cyclopropanecarboxamide]
1090 nM | 599 nM | O=C(NCc1cc2cc(F)c(NCc3ccon3)cc2[nH]1)N1CCCC1 [Compound 471, N-((5-fluoro-6-((isoxazol-3-ylmethyl)amino)-1H-indol-2-yl)methyl)pyrrolidine-1-carboxamide]
796 nM | 203 nM | CC(=O)NCc1cc2cc(F)c(OCc3cc(C)no3)cc2[nH]1 [Compound 223, N-((5-fluoro-6-((3-methylisoxazol-5-yl)methoxy)-1H-indol-2-yl)methyl)acetamide]
330 nM | 332 nM | Cc1cc2cc(CNC(=O)N3CCCC3)[nH]c2cc1OCc1ccon1 [Compound 533, N-((6-(isoxazol-3-ylmethoxy)-5-methyl-1H-indol-2-yl)methyl)pyrrolidine-1-carboxamide]
1220 nM | 1680 nM | CC1(C(=O)NCc2cc3ccc(OCCc4cscn4)cc3[nH]2)CC1 [Compound 191, 1-methyl-N-((6-(2-(thiazol-4-yl)ethoxy)-1H-indol-2-yl)methyl)cyclopropane-1-carboxamide]
41 nM | 157 nM | Cn1ncc(COc2cc3[nH]c(CNC(=O)C4(C)CC4)cc3cc2Cl)n1 [Compound 172, N-((5-chloro-6-((2-methyl-2H-1,2,3-triazol-4-yl)methoxy)-1H-indol-2-yl)methyl)-1-methylcyclopropane-1-carboxamide]
90.2 nM | 159 nM | Cn1ncc(COc2cc3[nH]c(CNC(=O)C4CC4)cc3cc2Cl)n1 [Compound 498, N-((5-chloro-6-((2-methyl-2H-1,2,3-triazol-4-yl)methoxy)-1H-indol-2-yl)methyl)cyclopropanecarboxamide]
117 nM | 169 nM | CC1(C(=O)NCc2cc3cc(Cl)c(OCCc4cscn4)cc3[nH]2)CC1 [Compound 67, N-((5-chloro-6-(2-(thiazol-4-yl)ethoxy)-1H-indol-2-yl)methyl)-1-methylcyclopropane-1-carboxamide]
27 nM | 70 nM | CC1(C(=O)NCc2cc3cc(Cl)c(OCc4ccco4)cc3[nH]2)CC1 [Compound 66, N-((5-chloro-6-(furan-2-ylmethoxy)-1H-indol-2-yl)methyl)-1-methylcyclopropane-1-carboxamide]
187 nM | 269 nM | CC1(C(=O)NCc2cc3cc(F)c(OCc4cccnc4F)cc3[nH]2)CC1 [Compound 332, N-((5-fluoro-6-((2-fluoropyridin-3-yl)methoxy)-1H-indol-2-yl)methyl)-1-methylcyclopropane-1-carboxamide]
468 nM | 288 nM | CC(=O)NCc1cc2cc(Cl)c(OCc3cnn(C)n3)cc2[nH]1 [Compound 221, N-((5-chloro-6-((2-methyl-2H-1,2,3-triazol-4-yl)methoxy)-1H-indol-2-yl)methyl)acetamide]
406 nM | 391 nM | CC1(C(=O)NCc2cc3cc(Cl)c(OCc4ccon4)cc3[nH]2)CCC1 [Compound 504, N-((5-chloro-6-(isoxazol-3-ylmethoxy)-1H-indol-2-yl)methyl)-1-methylcyclobutane-1-carboxamide]
56 nM | 299 nM | Cc1cnc(COc2cc3[nH]c(CNC(=O)C4(C)CC4)cc3cc2Cl)s1 [Compound 63, N-((5-chloro-6-((5-methylthiazol-2-yl)methoxy)-1H-indol-2-yl)methyl)-1-methylcyclopropane-1-carboxamide]
3740 nM | 1410 nM | CNC(=O)NCc1cc2cc(F)c(OCc3ccon3)cc2[nH]1 [Compound 216, 1-((5-fluoro-6-(isoxazol-3-ylmethoxy)-1H-indol-2-yl)methyl)-3-methylurea]
521 nM | 283 nM | CC(=O)NCc1cc2cc(C)c(OCc3ccon3)cc2[nH]1 [Compound 235, N-((6-(isoxazol-3-ylmethoxy)-5-methyl-1H-indol-2-yl)methyl)acetamide]
84 nM | 187 nM | O=C(NCc1cc2cc(Cl)c(OCc3ccon3)cc2[nH]1)C1(C(F)(F)F)CC1 [Compound 134, N-((5-chloro-6-(isoxazol-3-ylmethoxy)-1H-indol-2-yl)methyl)-1-(trifluoromethyl)cyclopropane-1-carboxamide]
545 nM | 1670 nM | O=C(NCc1cc2cc(C(F)(F)F)c(OCc3cscn3)cc2[nH]1)N1CCCC1 [Compound 479, N-((6-(thiazol-4-ylmethoxy)-5-(trifluoromethyl)-1H-indol-2-yl)methyl)pyrrolidine-1-carboxamide]
253 nM | 384 nM | CC(C)(C)C(=O)NCc1cc2cc(Cl)c(OCc3cscn3)cc2[nH]1 [Compound 432, N-((5-chloro-6-(thiazol-4-ylmethoxy)-1H-indol-2-yl)methyl)pivalamide]
> 50000 nM | > 9540 nM | CC1(C(=O)NCc2cc3cc(Cl)c(OCc4ccon4)c(Cl)c3[nH]2)CC1 [Compound 346, N-((5,7-dichloro-6-(isoxazol-3-ylmethoxy)-1H-indol-2-yl)methyl)-1-methylcyclopropane-1-carboxamide]
2060 nM | 531 nM | CC1(C(=O)NCc2cc3ccc(NCc4ccon4)cc3[nH]2)CC1 [Compound 152, N-((6-((isoxazol-3-ylmethyl)amino)-1H-indol-2-yl)methyl)-1-methylcyclopropane-1-carboxamide]
764 nM | 637 nM | Cc1ncc(COc2cc3[nH]c(CNC(=O)C4(C)CC4)cc3cc2F)s1 [Compound 13, N-((5-fluoro-6-((2-methylthiazol-5-yl)methoxy)-1H-indol-2-yl)methyl)-1-methylcyclopropane-1-carboxamide]
486 nM | 317 nM | CC(=O)NCc1cc2cc(Cl)c(NCc3ccon3)cc2[nH]1 [Compound 227, N-((5-chloro-6-((isoxazol-3-ylmethyl)amino)-1H-indol-2-yl)methyl)acetamide]
138 nM | 432 nM | Cc1cc2c(Cl)c(CNC(=O)N3CCC3)[nH]c2cc1OCc1cscn1 [Compound 475, N-((3-chloro-5-methyl-6-(thiazol-4-ylmethoxy)-1H-indol-2-yl)methyl)azetidine-1-carboxamide]
615 nM | 602 nM | CC1(C(=O)NCc2cc3ccc(OCc4ccc(F)nc4)cc3[nH]2)CC1 [Compound 34, N-((6-((6-fluoropyridin-3-yl)methoxy)-1H-indol-2-yl)methyl)-1-methylcyclopropane-1-carboxamide]
240 nM | 397 nM | O=C(NCc1cc2cc(Cl)c(OCc3cscn3)cc2[nH]1)C1CC(F)(F)C1 [Compound 495, N-((5-chloro-6-(thiazol-4-ylmethoxy)-1H-indol-2-yl)methyl)-3,3-difluorocyclobutane-1-carboxamide]
58 nM | 133 nM | CC1(C(=O)NCc2cc3cc(Cl)c(OCc4cccc(F)n4)cc3[nH]2)CC1 [Compound 32, N-((5-chloro-6-((6-fluoropyridin-2-yl)methoxy)-1H-indol-2-yl)methyl)-1-methylcyclopropane-1-carboxamide]
397 nM | 304 nM | O=C(NCc1cc2cc(Cl)c(NCc3cscn3)cc2[nH]1)N1CCC1 [Compound 472, N-((5-chloro-6-((thiazol-4-ylmethyl)amino)-1H-indol-2-yl)methyl)azetidine-1-carboxamide]

— US20240199546A1, “INHIBITORS OF SOLUTE CARRIER FAMILY 6A MEMBER 19 (SLC6A19) AND METHODS OF USE THEREOF” (Maze Therapeutics, Inc., priority 2022, published 2024)
